Results on 5 compounds are retold here after PMC2935290 (Journal of immunology (Baltimore, Md. : 1950), 2010).

In test [1] the target is T1, HLA-DPB1*0201 (Homo sapiens, UniProt P04440+P20036, A65V/A84D/A85E/K98E).
T1 sequence (P04440 30-258 A65V/A84D/A85E/K98E): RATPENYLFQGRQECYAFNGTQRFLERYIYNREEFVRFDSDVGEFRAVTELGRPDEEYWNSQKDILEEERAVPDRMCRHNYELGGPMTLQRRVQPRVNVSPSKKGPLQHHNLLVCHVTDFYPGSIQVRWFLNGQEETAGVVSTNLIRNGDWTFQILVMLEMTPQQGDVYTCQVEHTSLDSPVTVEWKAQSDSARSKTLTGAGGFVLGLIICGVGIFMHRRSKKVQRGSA
T1 sequence (P20036 29-260): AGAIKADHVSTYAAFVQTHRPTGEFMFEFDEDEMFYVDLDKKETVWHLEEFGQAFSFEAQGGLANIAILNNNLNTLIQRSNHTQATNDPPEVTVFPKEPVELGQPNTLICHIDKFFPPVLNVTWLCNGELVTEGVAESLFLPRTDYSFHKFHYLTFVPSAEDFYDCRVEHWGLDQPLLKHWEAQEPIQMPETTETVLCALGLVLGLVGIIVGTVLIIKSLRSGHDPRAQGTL
Briefly: biochemical. The format is binding.

For test [2], the target named is T2, HLA-DPB1*0402 (Homo sapiens, UniProt P04440+P20036, A65V/A84D/A85E/L207M).
T2 sequence (P04440 30-258 A65V/A84D/A85E): T1 sequence (P04440 30-258 A65V/A84D/A85E/K98E) with E69K
T2 sequence (P20036 29-260): T1 sequence (P20036 29-260)
Briefly: biochemical. The class given is binding.

Residue numbers refer to the chain shown, from its start. Where no end group is shown, it is not given here.

On to `CSCC[C@H](NC(=O)[C@H](CCCNC(=N)N)NC(=O)[C@H](CCSC)NC(=O)[C@H](CCCCN)NC(=O)[C@H](CO)NC(=O)[C@@H](NC(=O)[C@@H]1CCCN1C(=O)[C@@H](N)CCCCN)C(C)C)C(=O)N[C@@H](C)C(=O)N[C@H](C(=O)N1CCC[C@H]1C(=O)N[C@@H](CC(C)C)C(=O)N[C@@H](CC(C)C)C(=O)N[C@@H](CCSC)C(=O)N[C@@H](CCC(N)=O)C(=O)N[C@@H](C)C(=O)N[C@@H](CC(C)C)C(=O)N1CCC[C@H]1C(=O)O)[C@@H](C)O`, for which the values for the IC50 in test [1] and in test [2] were 0.161 µM and 0.138 µM, respectively.
The like results for DKKETVWHLE were, in that order, 0.093 µM and 3.74 µM.
The like results for DTLRSYYADWYQQKPG were, in that order, 0.188 µM and 1.55 µM.
In the case of `CC[C@H](C)[C@H](NC(=O)[C@H](CS)NC(=O)[C@@H]1CCCN1C(=O)[C@H](CCC(=O)O)NC(=O)[C@H](CO)NC(=O)CNC(=O)[C@@H](N)Cc1c[nH]cn1)C(=O)N[C@H](C(=O)N[C@@H](Cc1c[nH]cn1)C(=O)N[C@@H](CCCNC(=N)N)C(=O)NCC(=O)N[C@@H](CCCCN)C(=O)N1CCC[C@H]1C(=O)N[C@@H](Cc1ccccc1)C(=O)N[C@@H](CCC(N)=O)C(=O)N[C@@H](CC(C)C)C(=O)N[C@@H](CCC(=O)O)C(=O)N[C@@H](C)C(=O)N[C@H](C(=O)O)C(C)C)[C@@H](C)CC`, the IC50 in test [1] turned out to be 0.82 µM; in test [2], 1.41 µM.
In the case of `CC[C@H](C)[C@H](NC(=O)[C@H](CCC(N)=O)NC(=O)[C@H](CS)NC(=O)[C@H](Cc1ccc(O)cc1)NC(=O)[C@H](CC(N)=O)NC(=O)[C@H](CO)NC(=O)[C@@H](NC(=O)CNC(=O)[C@H](Cc1ccccc1)NC(=O)[C@H](CCCNC(=N)N)NC(=O)[C@H](CCC(N)=O)NC(=O)[C@H](C)NC(=O)[C@@H](N)CC(N)=O)[C@@H](C)CC)C(=O)O`, the figures for the IC50 in test [1] and in test [2] were 0.0078 µM and 0.365 µM, respectively.
